Measurements as given in patent US6087371A, “Heterocyclyl-ergoline derivatives as 5-HT1A receptor ligands” (Pharmacia & Upjohn S.p.A., priority 1996, dated 2000).
Read-outs that look alike come from different tables or passages of the source.

Experiments:
PKC = PKC translocation in hippocampal synaptosomes (Western blot); assay type: cell-based; settings: 15 min at 30° C., control = 100, dose not given
Protocol: PKC translocation in different brain's area
Purified synaptosomes have been obtained following the procedure described by Dunkley (Dunkley P. R., Health J. W:, Harrison S. M., Jarvie P. E., Glenfield P. J. and Rostas J. A. P.
A rapid percolation gradient procedure for isolation of synaptosomes directly from Si fraction: homogeneity and morphology of subcellular fractions. Brain res 441:59-71, 1988).
Synaptosomes purified from cortex, hippocampus were incubated (10 mg/ml) for 15 min at 30° C. in presence of increasing doses of the compounds of the present invention dissolved in tartaric acid (pH 7.0) or of the vehicle alone.
After incubation, purified synaptosomes were collected in cold Krebs buffer containing 10 mM EGTA and then processed according to Shearmann et al (Shearman M. S., Shinomura T., Oda T. and Nishizuka Y. Protein kinase C subspecies in adult rat hippocampal synaptosomes. Activation by diacylglycerol and arachidonic acid. FEBS Lett 279:261-264, 1991).
Synaptosomes have been lysed in this solution for 30 min at 4° C. with stirring. […]
PKC on Western blots was detected with a polyclonal total PKC antibody (Upstate Biotechnology). […] Antigen antibody complexes were detected by enhanced chemiluminescence. Results have been analysed by computer assisted Image analysis and expressed as per cent of PKC translocation in control conditions.

5-HT1A receptor = molecular target: T1, 5-HT1A receptor (Rattus norvegicus, UniProt P19327); experiment: Affinity for serotonin 1A (5-HT1A) receptor, 3H-8-OH-DPAT binding test
T1 construct: Freezed hippocampus dissected out from rats were homogenized; from tissue; host or cells: rat hippocampus, crude synaptosomal membranes
T1 sequence (P19327 1-422): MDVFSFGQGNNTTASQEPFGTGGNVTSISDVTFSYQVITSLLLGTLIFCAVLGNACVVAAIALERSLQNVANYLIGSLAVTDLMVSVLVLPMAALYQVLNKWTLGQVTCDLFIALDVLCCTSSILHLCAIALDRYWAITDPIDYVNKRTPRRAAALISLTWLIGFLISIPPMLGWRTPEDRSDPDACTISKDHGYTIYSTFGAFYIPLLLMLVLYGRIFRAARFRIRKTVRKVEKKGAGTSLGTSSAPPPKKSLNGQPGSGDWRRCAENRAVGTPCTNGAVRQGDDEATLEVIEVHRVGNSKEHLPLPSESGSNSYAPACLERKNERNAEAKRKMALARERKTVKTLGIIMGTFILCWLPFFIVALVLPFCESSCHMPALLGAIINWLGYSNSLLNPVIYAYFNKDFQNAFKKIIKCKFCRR
Protocol: Affinity for serotonin 1A (5-HT1A) receptor [^3 H-8-Hydroxy-2-dipropylaminotetralin (^3 H-8-OH-DPAT)binding test]
Preparation of crude synaptosome fraction and binding assay were conducted in accordance with the method reported in Journal of Neurochemistry, vol 44, page 1685, 1985 by Hall et al. Freezed hippocampus dissected out from rats were homogenized in 40 volumes of ice cold 50 mM Tris-HCl buffer (pH. 7.4) and the suspension was centrifuged at 500× g for 10 minutes at 0° C.
The supernatant was centrifuged at 40,000× g for 20 minutes at 0° C. and the resulting pellet was homogenized in 40 volumes of the above buffer and incubated at 37° C. for 10 minutes. After completion of reaction, the suspension was centrifuged at 40,000× g for 20 minutes at 0° C. The resulting pellet was washed twice by resuspension in 40 volumes of the above buffer and centrifugation, and finally suspended in 60 volumes of ice-cold 50 mM Tris-HCI buffer (pH 7.4) containing 1 mM manganese chloride for use in the next assay.
To the aliquots ([…]) of synaptosome membranes solution were added 50 ml of tritiated 8-OH-DPAT solution at the terminal concentration of 0.2 nM and 50 ml of test compound solution or 50 ml of its medium, and incubated at 37° C. for 10 minutes. Then to the mixture was added 5 ml of ice-cold 50 mM Tris-HCI buffer (pH 7.4) rapidly vacuum-filtered through Whatman^R GF/B filters and washed twice with 5 ml of the same buffer. The radioactivity of the residue remaining on the filters was measured by liquid scintillation counter. Nonspecific binding was determined under the presence of 10^-5 M serotonin (5-HT). 50% Inhibition concentration (IC50) of the test compound was graphically determined.

D2 receptor = molecular target: T2, D2 receptor (Rattus norvegicus, UniProt P61169); experiment: Affinity for dopamine 2 (D2) receptor, 3H-Spiperone binding test; settings: rat corpus striatum, 3H-Spiperone 0.2 nM, 37° C. 20 minutes; read-out: D2 affinity expressed as IC50
T2 construct: Freezed corpus striatum dissected out from rats were homogenized; from tissue; host or cells: rat corpus striatum, crude synaptosomal membranes
Protocol: Affinity for dopamine 2 (D2)receptor (^3 H-Spiperone binding test.)
Preparation of crude synaptosome fraction and binding assays were conducted in accordance with the method reported in European Journal of Pharmacology, vol 46, page 377,1977 by I.Creese et al. Freezed corpus striatum dissected out from rats were homogenized in 100 volumes of ice cold 50 mM Tris-HCl buffer (pH.7.7) and the suspension was centrifuged at 500× g for 10 minutes at 0° C.
The supernatant was centrifuged at 50,000× g for 15 minutes at 0° C. and the resulting pellet was homogenized in 100 volumes of the above buffer and then the suspension was centrifuged at 50,000× g for 15 minutes at 0° C. again. The resulting pellet was homogenized in 150 volumes of 50 mM Tris-HCl buffer (PH 7.1) containing 120 mM potassium chloride, 2 mM calcium chloride, 1 mM magnesium chloride, 0,1 ascorbic acid and […] pargyline. The suspension was incubated at 37° C. for 10 minutes and then provided as synaptosome membranes solution for the next assays. To the aliquots (900 m) of synaptosome membranes solution were added 50 ml of H-Spiperone solution at the terminal concentration of 0.2 nM and 50 ml of test compound solution or 50 ml of its medium, and incubated at 37° C. for 20 minutes. After completion of the reaction, the mixture was rapidly vacuum-filtered through Whatman^R GF/B filters. The filters were washed three times with 5 ml of the above buffer, and then the radioactivity of the residue remaining on the filters was measured by liquid scintillation counter. Nonspecific binding was determined under presence of […] of L)-Sulpiride 50% Inhibition concentration (IC50) of the test compound was graphically determined.

5-HT2 receptor = molecular target: T3, 5-HT2 receptor (Rattus norvegicus, UniProt P14842); experiment: Affinity for serotonin 2 (5-HT2) receptor, 3H-Ketanserin binding test
T3 construct: Freezed cerebral cortex dissected out from rats were homogenized; from tissue; host or cells: rat cerebral cortex, crude synaptosomal membranes
Protocol: Affinity for serotonin 2(5-HT2)receptor (^3 H-Ketanserin binding test).
The supernatant was centrifuged at 40,000× g for 20 minutes at 0° C. and the resulting pellets was homogenized in 30 volumes of ice-cold 50 mM Tris-HCI buffer (pH.7.7) and incubated at 37° C. for 10 minutes. The suspension was centrifuged at 40,000× g for 20 minutes at 0° C. again. The resulting pellet was homogenized in 100 volumes of the above buffer and provided as synaptosome membranes solution for the next assay.
To the aliquots (900 m) of synaptosome membranes solution were added 50 ml solution of ^3 H-Ketanserin solution at the terminal concentration of […] and 50 ml of test compound or its medium, and incubated at 37° C. for 20 minutes. After completion of the reaction, the mixture was rapidly vacuum-filtered through Whatman^R GF/B filters. The filters were washed three times with 5 ml of the above buffer, and then the radioactivity of the residue remaining on the filters was measured by liquid scintillation counter. Non specific binding was determined under the presence of […] of mianserin.

D1 receptor = experiment: Affinity for D1 receptor (method not described); assay type: binding; settings: read-out: D1 affinity expressed as IC50
[1] = rat hippocampus, 3H-8-OH-DPAT 0.2 nM, 37° C. 10 minutes, read-out: 5-HT1A affinity expressed as IC50

T3 sequence (P14842 whole entry): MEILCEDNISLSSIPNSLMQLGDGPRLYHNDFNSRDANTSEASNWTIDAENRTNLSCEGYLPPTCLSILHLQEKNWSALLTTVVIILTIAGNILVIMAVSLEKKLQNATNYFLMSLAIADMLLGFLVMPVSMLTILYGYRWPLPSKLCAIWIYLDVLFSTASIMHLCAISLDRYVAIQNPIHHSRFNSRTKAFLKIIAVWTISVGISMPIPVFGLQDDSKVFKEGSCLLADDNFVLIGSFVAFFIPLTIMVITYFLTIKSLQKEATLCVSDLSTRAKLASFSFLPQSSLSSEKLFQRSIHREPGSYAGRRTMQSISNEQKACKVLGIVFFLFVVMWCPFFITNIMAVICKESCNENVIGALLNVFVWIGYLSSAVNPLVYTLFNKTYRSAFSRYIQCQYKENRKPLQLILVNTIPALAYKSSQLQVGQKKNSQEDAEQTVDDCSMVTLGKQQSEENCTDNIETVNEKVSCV
T2 sequence (P61169 whole entry): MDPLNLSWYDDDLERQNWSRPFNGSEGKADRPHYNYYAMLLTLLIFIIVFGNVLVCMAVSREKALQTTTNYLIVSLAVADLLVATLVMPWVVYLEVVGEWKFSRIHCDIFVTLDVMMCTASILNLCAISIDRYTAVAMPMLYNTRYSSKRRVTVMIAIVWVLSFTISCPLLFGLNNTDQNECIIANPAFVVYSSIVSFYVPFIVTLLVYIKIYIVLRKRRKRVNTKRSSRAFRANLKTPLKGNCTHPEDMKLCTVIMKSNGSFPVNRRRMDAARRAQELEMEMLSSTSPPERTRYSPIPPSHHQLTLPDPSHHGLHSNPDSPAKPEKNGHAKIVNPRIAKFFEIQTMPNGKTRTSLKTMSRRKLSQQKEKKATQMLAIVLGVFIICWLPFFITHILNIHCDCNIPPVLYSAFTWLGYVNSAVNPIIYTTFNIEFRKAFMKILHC

Row | SMILES | PKC translocation in hippocampal synaptosomes, expressed as per cent of PKC translocation in control conditions (PKC) | IC50 (5-HT1A receptor; [1]) | IC50 (D2 receptor) | IC50 (5-HT2 receptor) | IC50 (5-HT1A receptor) | IC50 (D1 receptor)
1 | CO[C@]12C[C@@H](Cc3nc(-c4cncc(Br)c4)no3)CN(C)[C@@H]1Cc1cn(C)c3cccc2c13 [Example 4, 1,6-Dimethyl-8β-methyl-[3-(5-bromo-pyridin-3-yl)-1,2,4-oxadiazol-5-yl]-10α-methoxy-ergoline] | 126 per cent | 300 nM | 2930 nM | 3400 nM |  | 
2 | CO[C@]12C[C@@H](Cc3noc(-c4cncc(Br)c4)n3)CN(C)[C@@H]1Cc1cn(C)c3cccc2c13 [Example 2, 1,6-Dimethyl-8β-methyl-[5-(5-bromo-pyridin-3-yl)-1,2,4-oxadiazol-3-yl]-10α-methoxy-ergoline] |  | 200 nM | 3640 nM | 2400 nM |  | 
3 | CO[C@]12C[C@@H](c3nnc(-c4cncc(Br)c4)o3)CN(C)[C@@H]1Cc1cn(C)c3cccc2c13 [Example 8, 1,6-Dimethyl-8β-[2-(5-bromo-pyridin-3-yl)-1,3,4-oxadiazol-5-yl]-10α-methoxy-ergoline] |  |  | 1950 nM | 27 nM | 9 nM | 2040 nM
4 | CO[C@]12C[C@@H](Cc3nnc(-c4cncc(Br)c4)o3)CN(C)[C@@H]1Cc1cn(C)c3cccc2c13 [Example 10, 1,6-Dimethyl-8β-methyl-[2-(5-bromo-pyridin-3-yl)-1,3,4-oxadiazol-5-yl]-10α-methoxy-ergoline] |  |  | 2510 nM | 890 nM | 11 nM | 
